Experimental data published in patent US10301288B2, “Kinase inhibitors” (Topivert Pharma Limited, priority 2013, dated 2019).
Where two headings read alike, the source gives them in different places.

How the values were obtained:
[1] = Pharmacokinetics and colon distribution in rats; assay type: in vivo, male Wistar rats; conditions: for concentration at 0.5 h: time cell blank (0.5 hr per method)
Method: 30 male Wistar rats were divided into two groups: Group I (p.o.: 5 mg/kg) and Group II (i.v.: 0.25 mg/kg). […] From each rat, blood samples (approximately 120 μL) were collected from retro orbital plexus such that samples were obtained at pre-dose, 0.05, 0.13, 0.25, 0.5, 1, 2, 4, 8, and 24 hr (i.v.) and pre-dose, 0.5, 1, 2, 4, 6, 8, 12 and 24 hr (p.o.). Immediately after collection, plasma was harvested from blood by centrifugation and stored at −70° C. until analysis. Following collection of blood sample, the animals (Group I) were humanely euthanized by carbon dioxide asphyxiation. The total colon was isolated, flushed with cold phosphate buffer saline (pH 7.4) to remove contents and weighed. The total colon tissues homogenized with ice-cold phosphate buffered saline, pH 7.4. Buffer volume to be used for homogenization was twice the weight of tissue. All the samples were stored below −70° C. until bioanalysis. Total colon tissue homogenate volume was three times. Plasma and total colon tissue samples were quantified by LC-MS/MS method (LLOQ in plasma and total colon tissue=0.5 ng/mL).

[2] = Pharmacokinetics and colon distribution in mice; assay type: in vivo, male C57BL/6 mice; conditions: male, 5 mg/kg p.o.; for concentration at 1 h / concentration at 2 h / concentration at 4 h / concentration at 6 h / concentration at 8 h / concentration at 12 h / concentration at 24 h: po, mouse
Method: Blood samples (approximately 60 μL) were collected from retro orbital plexus such that the samples were obtained at 1, 2, 4, 6, 8, 12 and 24 hr. The blood samples were collected from a set of three mice at each time point in labelled micro centrifuge tube containing K2EDTA as anticoagulant. Plasma samples were separated by centrifugation at 4000 rpm for 10 min of whole blood and stored below −70° C. until bioanalysis. After collection of blood sample, animals were humanely euthanized by carbon dioxide asphyxiation to collect total colon tissues. The colons were flushed with cold phosphate buffer saline (pH 7.4) to remove contents. The total colon tissues were homogenized with cold phosphate buffer saline (pH 7.4) of twice the weight of colon tissue and stored below −70° C. Total volume was three times the total colon tissue weights. All samples were processed for analysis by protein precipitation using acetonitrile and analyzed with developed LC-MS/MS method (LLOQ: 2.02 ng/mL in plasma and 1.01 ng/mL in colon tissue). Pharmacokinetic parameters were calculated using the non-compartmental analysis tool of Phoenix WinNonlin® software (version 6.3).

[3] = system: TNBS-induced colitis in mice; assay: (C) TNBS-induced colitis in mice; assay type: in vivo, male BDF1 mice; conditions: for LP inflammation / Ulcer grade: 2 days
Method: Non-fasted, 10-12 week old, male BDF1 mice are dosed by oral gavage twice daily with either vehicle (5 mL/kg), reference item (Budesonide 2.5 mg/kg) or test compound (1 or 5 mg/kg) one day before (Day −1) stimulation of the inflammatory response by treatment with 2,4,6-trinitrobenzenesulphonic acid (TNBS) (15 mg/mL in 50% ethanol/50% saline). On Day 0 of the study TNBS (200 μL) is administered intra-colonically via a plastic catheter with BID dosing of the vehicle, reference or test compound continuing for 2 or 4 days. During the study animals are weighed every day and stool observations are made and recorded as a score, based on stool consistency. At the time of sacrifice on Day 2 (or Day 4) the large intestine is removed and the length and weight recorded. Sections of the colon are taken for histopathology scoring to determine disease severity.

[4] = Hydrolytic stability study in DMSO and water (3:1); assay type: physicochemical; conditions: 1 mg/mL
Method: General HPLC Procedure • Agilent, Waters X-Select C18, 2.5 μm, 4.6×30 mm column, 4 min method, 5-95% MeCN/water (0.1% formic acid). • Flow rate 2.5 ml/min • Column Oven Temperature 40° C. • Detection 254 nm.
Sample Preparation • A 1.0 mg sample of test compound was dissolved in 750 μL of DMSO. Water (250 μL) was added slowly, ensuring no precipitation occurred.
Recording Stability • A 50 μL aliquot of the test solution was removed and analysed in duplicate by 5 μL HPLC injections. The peak area for the test compound was recorded following manual integration of the corresponding UV trace. • The test solution was heated to 60° C., with stirring, and 50 μL aliquots removed for HPLC analysis at 5 and 24 h timepoints.

[5] = male, Wistar, colon, po, rat, 5 mg/kg p.o., read-out: Mean concentration, Colon
[6] = male, Wistar, plasma, po, rat, 5 mg/kg p.o., read-out: Mean concentration, Plasma
[7] = male, Wistar, plasma, Rat, 0.25 mg/kg intravenous
[8] = male, Wistar, po, Rat, 5 mg/kg p.o., Plasma
[9] = male, Wistar, po, Rat, 5 mg/kg p.o., Total colon
[10] = C57BL/6, colon, read-out: Mean concentration, Colon
[11] = C57BL/6, plasma, read-out: Mean concentration, Plasma
[12] = C57BL/6, po, Mouse, Total colon

Fpo ([1]; Rat, 5 mg/kg p.o., Plasma): 0.04%
concentration at 1 h [1, 5]: 1.9 ng/g
concentration at 2 h [1, 5]: 4 ng/g
concentration at 4 h [1, 5]: 339 ng/g
concentration at 6 h [1, 5]: 1860 ng/g
concentration at 8 h [1, 5]: 2000 ng/g
concentration at 12 h [1, 5]: 597 ng/g
concentration at 24 h [1, 5]: 53.9 ng/g
concentration at 0.5 h [1, 5]: 3.3 ng/g
concentration at 1 h [1, 6]: 0.9 ng/mL
concentration at 2 h [1, 6]: 0.6 ng/mL
concentration at 4 h [1, 6]: 2.7 ng/mL
concentration at 6 h [1, 6]: 1.7 ng/mL
concentration at 8 h [1, 6]: 0.6 ng/mL
concentration at 12 h [1, 6]: 0.7 ng/mL
concentration at 24 h [1, 6]: 1.8 ng/mL
concentration at 0.5 h [1, 6]: 0.8 ng/mL
AUC(0-inf) [1, 7]: 691 ng·h/mL
AUC(0-t) [1, 7]: 682 ng·h/mL
C0 [1, 7]: 5360 ng/mL
Vd [1, 7]: 0.3 L/kg
clearance [1, 7]: 6.3 mL/min/kg
half-life [1, 7]: 132 min
AUC(0-t) [1, 8]: 4.8 ng·h/mL
Cmax [1, 8]: 2.7 ng/mL
Tmax [1, 8]: 4 h
AUC(0-inf) [1, 9]: 15800 ng·h/mL
AUC(0-t) [1, 9]: 15500 ng·h/mL
Cmax [1, 9]: 2000 ng/mL
Tmax [1, 9]: 8 h
Mean concentration, Colon ([1]; rat, 5 mg/kg p.o., Pre-dose): 0.0 ng/g
Mean concentration, Plasma ([1]; rat, 5 mg/kg p.o., Pre-dose): 0.0 ng/mL
concentration at 1 h [2, 10]: 884 ng/g
concentration at 2 h [2, 10]: 2810 ng/g
concentration at 4 h [2, 10]: 4240 ng/g
concentration at 6 h [2, 10]: 1400 ng/g
concentration at 8 h [2, 10]: 13700 ng/g
concentration at 12 h [2, 10]: 7490 ng/g
concentration at 24 h [2, 10]: 31.6 ng/g
concentration at 1 h [2, 11]: 11.7 ng/mL
concentration at 2 h [2, 11]: 8.5 ng/mL
concentration at 4 h [2, 11]: 5.1 ng/mL
concentration at 6 h [2, 11]: 4.55 ng/mL
concentration at 8 h [2, 11]: 5.1 ng/mL
concentration at 12 h [2, 11]: 0 ng/mL
concentration at 24 h [2, 11]: 0 ng/mL
AUC(0-t) ([2]; C57BL/6, po, Mouse, Plasma): 49 ng·h/mL
Cmax ([2]; C57BL/6, po, Mouse, Plasma): 12 ng/mL
Tmax ([2]; C57BL/6, po, Mouse, Plasma): 1 h
AUC(0-inf) [2, 12]: 118 µg·h/mL
AUC(0-t) [2, 12]: 117000 ng·h/mL
Cmax [2, 12]: 13700 ng/mL
Tmax [2, 12]: 8 h
% left ([4]; 0 min): 100%
% left ([4]; 60° C., 300 min): 83%
% left ([4]; 60° C., 1440 min): 39%
Structure (SMILES): C#Cc1cc(Nc2nccc(Oc3ccc(NC(=O)Nc4cc(C(C)(C)C)nn4-c4ccc(C)cc4)c4ccccc34)n2)cc(C(=O)NCCOCCOCCOC)c1 [Example 2, 3-((4-((4-(3-(3-(tert-Butyl)-1-(p-tolyl)-1H-pyrazol-5-yl)ureido)naphthalen-1-yl)oxy)pyrimidin-2-yl)amino)-5-ethynyl-N-(2-(2-(2-methoxyethoxy)ethoxy)ethyl)-benzamide]
LP inflammation ([3]; 1 mg/kg oral BID): 2.9 ± 0.3
Ulcer grade ([3]; 1 mg/kg oral BID): 3.5 ± 0.4
LP inflammation ([3]; 5 mg/kg oral BID): 2.2 ± 0.4
Ulcer grade ([3]; 5 mg/kg oral BID): 3.0 ± 0.5
ulcer grade and epithelial repair compared to the vehicle control (histopathology) ([3]; dosed orally at 5 mg/kg): marked improvements in ulcer grade and epithelial repair
inflammatory cell infiltrate in the reticular and lamina propria zones (histopathology) ([3]; oral dosing): marked reduction
